Results as given in the supplement of paper PMC10883282.
Counter-ions that a name gives are not always drawn. ± gives the standard deviation of the averaged measurements.

Tested on: KHOS-240S
Experiment: relative viability vs DMSO control (72 h) (fraction); higher = more viable cells
Outline: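 Sarcoma cell lines were seeded in 384-well plates at densities chosen for 80–90% confluence, then 24 h later given 2.5 µl of serially diluted compound drawn from source plates spanning 10 mM to 0.0002 mM. They were held 72 h at 37 °C, 5% CO2, with 0.1% DMSO vehicle and a 5 µM positive control included. Relative viability was read with ATPLite as percent growth and averaged over up to triplicate wells. Rescaling placed full at 1 and none at 0.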

SMILES | relative viability (0.00017 µM) | relative viability (0.00051 µM) | relative viability (0.00152 µM) | relative viability (0.00457 µM) | relative viability (0.01372 µM) | relative viability (0.04115 µM) | relative viability (0.1235 µM) | relative viability (0.3704 µM) | relative viability (1.111 µM) | relative viability (3.333 µM) | relative viability (10 µM)
O=C(Nc1cnn2ccc(N3CCC[C@@H]3c3cc(F)ccc3F)nc12)N1CC[C@H](O)C1 [Larotrectinib] | 1.1 ± 0.045 | 1.07 ± 0.064 | 1.1 ± 0.091 | 1.07 ± 0.093 | 1.05 ± 0.066 | 1.05 ± 0.02 | 1.09 ± 0.066 | 1.09 ± 0.068 | 1.06 ± 0.06 | 1.07 ± 0.079 | 1.05 ± 0.082
C[C@@H]1COCCN1c1cc(-c2ccnn2C)c2ccnc(-c3ccn[nH]3)c2n1 | 1.04 ± 0.014 | 1.06 ± 0.013 | 1.07 ± 0.042 | 1.04 ± 0.011 | 1.01 ± 0.036 | 0.783 ± 0.028 | 0.366 ± 0.051 | 0.194 ± 0.026 | 0.161 ± 0.0077 | 0.129 ± 0.0056 | 0.119 ± 0.0037
CC(C)N1CCN(Cc2cnc(-c3cc(-c4cccc5[nH]ccc45)cc4[nH]ncc34)o2)CC1 [Nemiralisib] | 0.971 ± 0.016 | 0.972 ± 0.027 | 0.98 ± 0.026 | 0.971 ± 0.024 | 0.966 ± 0.017 | 0.939 ± 0.018 | 0.956 ± 0.027 | 0.927 ± 0.035 | 0.93 ± 0.041 | 0.759 ± 0.018 | 0.455 ± 0.026
COc1cccc2c1C(=O)c1c(O)c3c(c(O)c1C2=O)C[C@@](O)(C(=O)CO)C[C@@H]3O[C@H]1C[C@H](N)[C@H](O)[C@H](C)O1 [Doxorubicin Hydrochloride] | 1.08 ± 0.041 | 1.05 ± 0.033 | 1.05 ± 0.026 | 1.07 ± 0.039 | 0.996 ± 0.042 | 0.654 ± 0.045 | 0.459 ± 0.011 | 0.241 ± 0.018 | 0.109 ± 0.0065 | 0.124 ± 0.021 | 0.106 ± 0.0059
Nc1cc(C(F)(F)F)c(-c2cc(N3CCOCC3)nc(N3CCOCC3)n2)cn1 [Buparlisib] | 1.039 ± 0.01 | 1.02 ± 0.024 | 1.04 ± 0.012 | 1.02 ± 0.033 | 1.03 ± 0.032 | 1.03 ± 0.083 | 0.989 ± 0.023 | 0.9151 ± 0.008 | 0.708 ± 0.024 | 0.114 ± 0.0036 | 0.0584 ± 0.0016
Cc1cc(Nc2ncnc3ccc(NC4=NC(C)(C)CO4)cc23)ccc1Oc1ccn2ncnc2c1 [Tucatinib] | 1.06 ± 0.019 | 1.11 ± 0.022 | 1.09 ± 0.036 | 1.07 ± 0.031 | 1.075 ± 0.0081 | 1.09 ± 0.03 | 1.08 ± 0.025 | 1.07 ± 0.027 | 1.05 ± 0.054 | 1.01 ± 0.022 | 0.953 ± 0.051
Cc1nc(-c2cn3c(n2)-c2ccc(-c4cnn(C(C)(C)C(N)=O)c4)cc2OCC3)n(C(C)C)n1 [Taselisib] | 1.03 ± 0.013 | 1.03 ± 0.024 | 1.01 ± 0.031 | 1.02 ± 0.049 | 0.952 ± 0.029 | 0.911 ± 0.012 | 0.856 ± 0.018 | 0.793 ± 0.041 | 0.725 ± 0.037 | 0.684 ± 0.049 | 0.566 ± 0.017
CN1CCC(COc2cnc(-c3cccc(Cn4nc(-c5cccc(C#N)c5)ccc4=O)c3)nc2)CC1 [Tepotinib] | 1.09 ± 0.051 | 1.09 ± 0.014 | 1.1 ± 0.043 | 1.09 ± 0.035 | 1.04 ± 0.019 | 1.08 ± 0.045 | 1.04 ± 0.045 | 1.02 ± 0.031 | 1 ± 0.017 | 0.94 ± 0.095 | 0.593 ± 0.022
CNC(=O)c1cc(Oc2ccc(NC(=O)Nc3ccc(Cl)c(C(F)(F)F)c3)c(F)c2)ccn1 [Regorafenib] | 1.05 ± 0.055 | 1.09 ± 0.052 | 1.07 ± 0.051 | 1.07 ± 0.053 | 1.1 ± 0.059 | 1.1 ± 0.049 | 1.09 ± 0.04 | 1.04 ± 0.014 | 0.96 ± 0.09 | 0.812 ± 0.045 | 0.5087 ± 0.00089
CCCS(=O)(=O)Nc1ccc(F)c(C(=O)c2c[nH]c3ncc(-c4ccc(Cl)cc4)cc23)c1F [Vemurafenib] | 1.09 ± 0.063 | 1.07 ± 0.032 | 1.09 ± 0.049 | 1.08 ± 0.024 | 1.08 ± 0.026 | 1.07 ± 0.034 | 1.07 ± 0.033 | 1.07 ± 0.02 | 1.075 ± 0.0032 | 1.01 ± 0.02 | 0.708 ± 0.046
COc1c(OCCCN2CCOCC2)ccc2c1N=C(NC(=O)c1cnc(N)nc1)N1CCN=C21 [Copanlisib] | 1.09 ± 0.041 | 1.02 ± 0.048 | 1.06 ± 0.013 | 0.922 ± 0.094 | 0.889 ± 0.098 | 0.833 ± 0.09 | 0.714 ± 0.014 | 0.629 ± 0.022 | 0.409 ± 0.018 | 0.217 ± 0.008 | 0.188 ± 0.003
CC(=O)Nc1cccc(-n2c(=O)n(C3CC3)c(=O)c3c(Nc4ccc(I)cc4F)n(C)c(=O)c(C)c32)c1 [Trametinib] | 1.07 ± 0.038 | 1.07 ± 0.014 | 1.04 ± 0.027 | 1.02 ± 0.057 | 0.876 ± 0.04 | 0.764 ± 0.029 | 0.719 ± 0.028 | 0.717 ± 0.05 | 0.731 ± 0.023 | 0.666 ± 0.01 | 0.641 ± 0.017
COCc1c(-c2cc3cc(C)cc(OC)c3s2)c2c(N)ncnn2c1CN1CCNC(=O)C1 [Rogaratinib] | 1.04 ± 0.015 | 1.07 ± 0.028 | 1.07 ± 0.046 | 1.07 ± 0.061 | 1.03 ± 0.011 | 0.995 ± 0.053 | 0.9 ± 0.025 | 0.821 ± 0.019 | 0.783 ± 0.045 | 0.671 ± 0.046 | 0.511 ± 0.036
COc1cc2/c(=N/c3ccc(Br)cc3F)nc[nH]c2cc1OCC1CCN(C)CC1 [Vandetanib] | 1.03 ± 0.078 | 1.03 ± 0.048 | 1.02 ± 0.042 | 1.05 ± 0.048 | 1.05 ± 0.06 | 1.05 ± 0.045 | 0.99 ± 0.022 | 1.01 ± 0.026 | 0.908 ± 0.014 | 0.4145 ± 0.0025 | 0.0298 ± 0.0027
CNC(=O)c1ccc(-c2cnc3ncc(Cc4ccc5ncccc5c4)n3n2)cc1F [Capmatinib] | 1.07 ± 0.048 | 1.05 ± 0.02 | 1.046 ± 0.0098 | 1.07 ± 0.033 | 1.07 ± 0.018 | 1.06 ± 0.018 | 1.06 ± 0.027 | 1.04 ± 0.018 | 1.03 ± 0.018 | 1.03 ± 0.012 | 0.986 ± 0.03
CCN1CCN(Cc2ccc(Nc3ncc(F)c(-c4cc(F)c5nc(C)n(C(C)C)c5c4)n3)nc2)CC1 [Abemaciclib] | 1.04 ± 0.038 | 1.07 ± 0.061 | 1.07 ± 0.059 | 1.05 ± 0.039 | 1.04 ± 0.048 | 1 ± 0.077 | 0.892 ± 0.071 | 0.834 ± 0.028 | 0.736 ± 0.024 | 0.7 ± 0.014 | 0.539 ± 0.025
